Results: patent US8471005B2 (Cephalon, Inc., priority 2008, dated 2013)
Read-outs that look alike come from different tables or passages of the source.

Legend:
[1] = molecular target: T1, ALK (Homo sapiens, UniProt Q9UM73); assay: ALK Kinase Assay (ELISA/TRF, PLC-γ substrate); format: biochemical; settings: read-out: ALK Potency
T1 construct: host or cells: baculovirus expression system
Procedure: Briefly, each 96-well plate was coated with […] of 10 μg/mL substrate (phospholipase C-γ) in Tris-buffered saline (TBS). […] The reaction was initiated by adding enzyme (30 ng/ml ALK) and was allowed to proceed at 37° C. for 15 minutes. Detection of the phosphorylated product was performed by adding 100 μl/well of Eu—N1 labeled PT66 antibody (Perkin Elmer # AD0041).
Data analysis was performed using ActivityBase (IDBS, Guilford, UK). IC50 values were calculated by plotting percent inhibition versus log10 of the concentration of compound and fitting to the nonlinear regression sigmoidal dose-response (variable slope) equation in XLFit (IDBS, Guilford, UK).

[2] = molecular target: T2, JAK2 (Homo sapiens, UniProt O60674); assay: Recombinant Human JAK2 Kinase Assay (TRF); format: biochemical; settings: read-out: JAK2 Potency
T2 construct: host or cells: baculovirus expression system
T2 sequence (O60674 whole entry): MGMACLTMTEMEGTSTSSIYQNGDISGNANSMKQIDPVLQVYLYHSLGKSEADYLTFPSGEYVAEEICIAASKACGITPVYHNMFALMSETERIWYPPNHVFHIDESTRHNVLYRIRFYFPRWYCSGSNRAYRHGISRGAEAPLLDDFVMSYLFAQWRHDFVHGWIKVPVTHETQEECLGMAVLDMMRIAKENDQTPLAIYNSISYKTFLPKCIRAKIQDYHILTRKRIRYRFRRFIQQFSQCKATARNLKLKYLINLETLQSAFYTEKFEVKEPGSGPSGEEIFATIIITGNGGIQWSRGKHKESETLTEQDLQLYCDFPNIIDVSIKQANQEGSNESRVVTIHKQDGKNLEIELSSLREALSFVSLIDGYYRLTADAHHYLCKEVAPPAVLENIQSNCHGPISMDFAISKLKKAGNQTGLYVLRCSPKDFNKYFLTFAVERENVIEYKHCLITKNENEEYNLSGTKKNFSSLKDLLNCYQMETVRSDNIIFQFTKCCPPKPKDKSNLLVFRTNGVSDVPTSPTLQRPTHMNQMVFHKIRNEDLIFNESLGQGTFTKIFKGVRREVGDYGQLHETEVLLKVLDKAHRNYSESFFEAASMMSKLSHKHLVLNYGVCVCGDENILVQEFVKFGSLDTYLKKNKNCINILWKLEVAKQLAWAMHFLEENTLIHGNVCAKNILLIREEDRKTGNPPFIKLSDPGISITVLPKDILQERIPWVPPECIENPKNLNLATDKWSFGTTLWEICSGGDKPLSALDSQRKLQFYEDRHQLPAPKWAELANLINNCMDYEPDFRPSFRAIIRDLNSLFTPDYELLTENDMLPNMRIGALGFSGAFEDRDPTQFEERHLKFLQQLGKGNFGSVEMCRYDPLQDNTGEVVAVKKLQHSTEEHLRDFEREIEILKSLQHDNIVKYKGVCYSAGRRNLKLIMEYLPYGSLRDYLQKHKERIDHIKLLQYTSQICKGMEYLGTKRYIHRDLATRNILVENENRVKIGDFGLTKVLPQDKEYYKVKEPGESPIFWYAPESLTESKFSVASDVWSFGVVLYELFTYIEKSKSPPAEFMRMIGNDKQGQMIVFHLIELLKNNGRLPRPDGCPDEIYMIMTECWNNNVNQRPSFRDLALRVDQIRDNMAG
Procedure: Compounds were tested for their ability to inhibit the kinase activity of baculovirus-expressed JAK2 using the TRF detection system. […] The plates were coated first with 100 μL/well of 10 μg/mL Neutravidin (Pierce #31000, Rockford, Ill.) in TBS at 37° C. for 2 hours, followed by 100 μL/well of 1 μg/mL 15-mer peptide substrate (biotinyl-amino-hexanoyl-[…]-amide, Infinity Biotech Research and Resource, Aston, Pa.) at 37° C. for another hour. The JAK2 assay mixture (total volume=100 μL/well) consisting of 20 mM HEPES (pH 7.2), 0.2 μM ATP, 1 mM MnCl2, 0.1% BSA, and test compound (diluted in DMSO; 2.5% DMSO final in assay) was then added to the assay plate. Enzyme (15 ng/ml JAK2) was added and the reaction was allowed to proceed at room temperature for 20 minutes. Detection of the phosphorylated product was performed by adding 100 μL/well of Eu—N1 labeled PY100 antibody (PerkinElmer Life Sciences #AD0041, Boston, Mass.).

[3] = ALK kinase inhibition, 1 μM ATP
[4] = JAK2 kinase inhibition, 0.2 μM ATP

T1 sequence (Q9UM73 19-1620): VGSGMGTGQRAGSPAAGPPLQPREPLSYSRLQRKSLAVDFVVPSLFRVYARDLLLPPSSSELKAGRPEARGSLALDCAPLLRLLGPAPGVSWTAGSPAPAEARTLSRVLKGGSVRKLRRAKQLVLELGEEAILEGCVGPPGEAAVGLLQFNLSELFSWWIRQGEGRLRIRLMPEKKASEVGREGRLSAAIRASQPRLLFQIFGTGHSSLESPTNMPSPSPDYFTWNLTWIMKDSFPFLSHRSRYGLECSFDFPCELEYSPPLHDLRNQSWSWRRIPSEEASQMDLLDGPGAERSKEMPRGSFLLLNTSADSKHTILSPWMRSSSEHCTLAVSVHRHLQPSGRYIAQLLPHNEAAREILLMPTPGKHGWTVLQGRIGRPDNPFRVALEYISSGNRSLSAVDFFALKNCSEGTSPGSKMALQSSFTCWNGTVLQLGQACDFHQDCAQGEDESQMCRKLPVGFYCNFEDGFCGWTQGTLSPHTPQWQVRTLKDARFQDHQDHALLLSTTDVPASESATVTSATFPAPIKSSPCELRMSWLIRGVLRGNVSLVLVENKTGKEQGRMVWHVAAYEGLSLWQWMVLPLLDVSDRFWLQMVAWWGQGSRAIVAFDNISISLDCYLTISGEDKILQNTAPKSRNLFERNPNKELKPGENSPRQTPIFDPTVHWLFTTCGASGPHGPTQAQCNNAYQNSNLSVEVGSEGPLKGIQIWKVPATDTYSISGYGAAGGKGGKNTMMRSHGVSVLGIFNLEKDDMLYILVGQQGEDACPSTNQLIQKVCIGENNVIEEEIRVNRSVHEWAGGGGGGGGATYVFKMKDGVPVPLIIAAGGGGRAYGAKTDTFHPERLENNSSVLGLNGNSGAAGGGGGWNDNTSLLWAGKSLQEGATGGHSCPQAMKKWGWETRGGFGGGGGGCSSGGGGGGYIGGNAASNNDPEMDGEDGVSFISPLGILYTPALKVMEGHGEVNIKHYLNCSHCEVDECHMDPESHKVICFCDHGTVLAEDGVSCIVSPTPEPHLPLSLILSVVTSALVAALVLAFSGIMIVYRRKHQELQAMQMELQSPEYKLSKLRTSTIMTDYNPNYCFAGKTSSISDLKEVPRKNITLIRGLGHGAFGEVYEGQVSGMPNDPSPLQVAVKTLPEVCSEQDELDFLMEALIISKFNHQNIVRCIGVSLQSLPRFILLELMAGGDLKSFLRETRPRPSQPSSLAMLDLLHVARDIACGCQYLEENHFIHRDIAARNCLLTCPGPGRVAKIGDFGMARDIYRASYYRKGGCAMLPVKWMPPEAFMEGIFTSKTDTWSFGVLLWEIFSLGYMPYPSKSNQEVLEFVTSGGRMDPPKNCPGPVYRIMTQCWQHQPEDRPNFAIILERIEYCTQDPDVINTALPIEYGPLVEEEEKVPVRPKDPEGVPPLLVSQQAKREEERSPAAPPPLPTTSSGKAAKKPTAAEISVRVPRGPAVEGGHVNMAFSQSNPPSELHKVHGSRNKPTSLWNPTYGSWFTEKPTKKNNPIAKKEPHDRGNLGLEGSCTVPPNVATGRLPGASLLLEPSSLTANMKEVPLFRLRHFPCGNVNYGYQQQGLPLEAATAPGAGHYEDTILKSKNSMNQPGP

Row | IC50 ([1]; ALK Kinase Inhibition) [nM] | IC50 ([2]; JAK2 Kinase Inhibition) [nM] | IC50 [1, 3] [nM] | IC50 [2, 4] [nM] | SMILES
1 | 100 to 1000 | < 100 |  |  | CN1C(=O)Cc2cc(Nc3ncc4ccc(-c5cccc(NS(C)(=O)=O)c5)n4n3)ccc21 [Example 361, N-{3-[2-(1-Methyl-2-oxo-2,3-dihydro-1H-indol-5-ylamino)-pyrrolo[2,1-f][1,2,4]triazin-7-yl]-phenyl}-methanesulfonamide]
2 |  |  | 100 to 1000 | < 100 | CN1CCN(c2ccc(Nc3ncc4ccc(-c5ccc(CNCCS(C)(=O)=O)o5)n4n3)cc2)CC1 [Example 1200, (7-{5-[(2-Methanesulfonyl-ethylamino)-methyl]-furan-2-yl}-pyrrolo[2,1-f][1,2,4]triazin-2-yl)-[4-(4-methyl-piperazin-1-yl)-phenyl]-amine]
3 |  |  | 100 to 1000 | < 100 | CS(=O)(=O)c1cccc(-c2ccc3cnc(Nc4ccc(C5=CCN(CC(N)=O)CC5)c(C(F)(F)F)c4)nn23)c1 [Example 951, 2-(4-{4-[7-(3-Methanesulfonyl-phenyl)-pyrrolo[2,1-f][1,2,4]triazin-2-ylamino]-2-trifluoromethyl-phenyl}-3,6-dihydro-2H pyridin-1-yl) acetamide]
4 |  |  | < 100 | < 100 | CN1CCC(c2ccc(Nc3ncc4ccc(-c5ccccc5N(C)S(C)(=O)=O)n4n3)cc2)CC1 [Example 1178, N-Methyl-N-(2-{2-[4-(1-methyl-piperidin-4-yl)-phenylamino]-pyrrolo[2,1-f][1,2,4]triazin-7-yl}-phenyl)-methanesulfonamide]
5 |  |  | < 100 | < 100 | Cc1cc(Nc2ncc3ccc(-c4cccc(S(C)(=O)=O)c4)n3n2)ccc1C1CCN(C)CC1 [Example 946, [7-(3-Methanesulfonyl-phenyl)-pyrrolo[2,1-f][1,2,4]triazin-2-yl]-[3-methyl-4-(1-methyl-piperidin-4-yl)-phenyl]-amine]
6 |  |  | < 100 | 100 to 1000 | COc1cc([C@@H]2CCN(CCO)C[C@@H]2O)ccc1Nc1ncc2ccc(-c3ccccc3N(C)S(C)(=O)=O)n2n1 (racemic) [Example 847, (±)-N-[2-(2-{4-[(3R,4S)-3-Hydroxy-1-(2-hydroxy-ethyl)-piperidin-4-yl]-2-methoxy-phenylamino}-pyrrolo[2,1-f][1,2,4]triazin-7-yl)-phenyl]-N-methyl-methanesulfonamide]
7 |  |  | < 100 | < 100 | COc1ccc(-c2ccc3cnc(Nc4ccc(C5CCN(CC(N)=O)CC5)c(C)c4)nn23)cn1 [Example 934, 2-(4-{4-[7-(6-Methoxy-pyridin-3-yl)-pyrrolo[2,1-f][1,2,4]triazin-2-ylamino]-2-methyl-phenyl}-piperidin-1-yl)-acetamide]
8 |  |  | < 100 | 100 to 1000 | COc1cc(C2CCN(CC(N)=O)CC2)ccc1Nc1ncc2ccc(-c3cccc4c3OCC4)n2n1 [Example 703, 2-(4-{4-[7-(2,3-Dihydro-benzofuran-7-yl)-pyrrolo[2,1-f][1,2,4]triazin-2-ylamino]-3-methoxy-phenyl}-piperidin-1-yl)-acetamide]
9 |  |  | 100 to 1000 | < 100 | COc1cc(-c2ccc3cnc(Nc4ccc(C5CCN(C)CC5)cc4)nn23)ccn1 [Example 676, [7-(2-Methoxy-pyridin-4-yl)-pyrrolo[2,1-f][1,2,4]triazin-2-yl]-[4-(1-methyl-piperidin-4-yl)-phenyl]-amine]
10 |  |  | > 10000 | < 100 | CCNC(=O)Nc1cccc(Nc2ncc3ccc(-c4ccc(OC)nc4)n3n2)c1 [Example 901, 1-Ethyl-3-{3-[7-(6-methoxy-pyridin-3-yl)-pyrrolo[2,1-f][1,2,4]triazin-2-ylamino]-phenyl}-urea]
11 |  |  | < 100 | 100 to 1000 | COc1cc(C2CCN(Cc3ncc[nH]3)CC2)ccc1Nc1ncc2ccc(-c3ccccc3OC)n2n1 [Example 868, {4-[1-(1H-Imidazol-2-ylmethyl)-piperidin-4-yl]-2-methoxy-phenyl}-[7-(2-methoxy-phenyl)-pyrrolo[2,1-f][1,2,4]triazin-2-yl]-amine]
12 |  |  |  | < 100 | COc1cc([C@@H]2CCN(CCO)C[C@H]2O)ccc1Nc1ncc2ccc(-c3ccccc3OC)n2n1 (racemic) [Example 856, (±)-(3S,4S)-1-(2-Hydroxy-ethyl)-4-{3-methoxy-4-[7-(2-methoxy-phenyl)-pyrrolo[2,1-f][1,2,4]triazin-2-ylamino]-phenyl}-piperidin-3-ol]
13 |  |  |  | 1000 to 10000 | COc1cc([C@@]2(O)CCNC[C@@H]2O)ccc1Nc1ncc2ccc(-c3ccccc3N(C)S(C)(=O)=O)n2n1 (racemic) [Example 840, (±)-N-(2-{2-[4-((3S,4S)-3,4-Dihydroxy-piperidin-4-yl)-2-methoxy-phenylamino]-pyrrolo[2,1-f][1,2,4]triazin-7-yl}-phenyl)-N-methyl-methanesulfonamide]
14 |  |  |  | < 100 | COc1cc([C@@]2(O)CCN(C)C[C@@H]2O)ccc1Nc1ncc2ccc(-c3ccccc3OC)n2n1 (racemic) [Example 829, (±)-(3S,4S)-4-{3-Methoxy-4-[7-(2-methoxy-phenyl)-pyrrolo[2,1-f][1,2,4]triazin-2-ylamino]-phenyl}-1-methyl-piperidine-3,4-diol]
15 |  |  |  | 100 to 1000 | COc1cc([C@@H]2CCN(CC(N)=O)C[C@@H]2O)ccc1Nc1ncc2ccc(-c3ccccc3OC)n2n1 (racemic) [Example 839, (±)-2-43R,4S)-3-Hydroxy-4-{3-methoxy-4-[7-(2-methoxy-phenyl)-pyrrolo[2,1-f][1,2,4]triazin-2-ylamino]-phenyl}-piperidin-1-yl)-acetamide]
16 |  | < 100 |  |  | COc1ccc(Cl)cc1-c1ccc2cnc(Nc3ccc(C(C)C)c(NC(C)=O)c3)nn12 [Example 302, N-{5-[7-(5-Chloro-2-methoxy-phenyl)-pyrrolo[2,1-f][1,2,4]triazin-2-ylamino]-2-isopropyl-phenyl}-acetamide]
17 |  |  |  | 100 to 1000 | CN1CCN(c2ccc(Nc3ncc4cc(-c5cccnc5)cn4n3)cc2)CC1 [Example 1157]
18 |  |  |  | 100 to 1000 | COc1cc([C@@]2(O)CCN(C(=O)OC(C)(C)C)C[C@@H]2O)ccc1Nc1ncc2ccc(-c3ccccc3OC)n2n1 (racemic) [Example 831, (±)-(3S,4S)-3,4-Dihydroxy-4-{3-methoxy-4-[7-(2-methoxy-phenyl)-pyrrolo[2,1-f][1,2,4]triazin-2-ylamino]-phenyl}-piperidine-1-carboxylic acid tert-butyl ester]
19 |  |  |  | 100 to 1000 | COc1cc([C@@H]2CCNC[C@H]2O)ccc1Nc1ncc2ccc(-c3ccccc3OC)n2n1 (racemic) [Example 855, (±)-(3S,4S)-4-{3-Methoxy-4-[7-(2-methoxy-phenyl)-pyrrolo[2,1-f][1,2,4]triazin-2-ylamino]-phenyl}-piperidin-3-ol]
20 |  |  |  | < 100 | COc1cc(C2CCN(C)CC2O)ccc1Nc1ncc2ccc(-c3ccccc3OC)n2n1 (racemic) [Example 830, (±)-4-{3-Methoxy-4-[7-(2-methoxy-phenyl)-pyrrolo[2,1-f][1,2,4]triazin-2-ylamino]-phenyl}-1-methyl-piperidin-3-ol]
21 |  |  |  | < 100 | COc1cc([C@@H]2CCN(CCO)C[C@@H]2O)ccc1Nc1ncc2ccc(-c3ccccc3OC)n2n1 (racemic) [Example 848, (±)-(3R,4S)-1-(2-Hydroxy-ethyl)-4-{3-methoxy-4-[7-(2-methoxy-phenyl)-pyrrolo[2,1-f][1,2,4]triazin-2-ylamino]-phenyl}-piperidin-3-ol]
22 |  |  |  | < 100 | COc1cc([C@@]2(O)CCN(CC(N)=O)C[C@@H]2O)ccc1Nc1ncc2ccc(-c3ccccc3OC)n2n1 (racemic) [Example 849, (±)-2-43S,4S)-3,4-Dihydroxy-4-{3-methoxy-4-[7-(2-methoxy-phenyl)-pyrrolo[2,1-f][1,2,4]triazin-2-ylamino]-phenyl}-piperidin-1-yl)-acetamide]
23 |  |  |  | 100 to 1000 | COc1cc([C@@H]2CCNC[C@@H]2O)ccc1Nc1ncc2ccc(-c3ccccc3OC)n2n1 (racemic) [Example 835, (±)-(3R,4S)-4-{3-Methoxy-4-[7-(2-methoxy-phenyl)-pyrrolo[2,1-f][1,2,4]triazin-2-ylamino]-phenyl}-piperidin-3-ol]
24 |  |  |  | 100 to 1000 | COc1cc([C@@]2(O)CCN(CC(N)=O)C[C@@H]2O)ccc1Nc1ncc2ccc(-c3ccccc3N(C)S(C)(=O)=O)n2n1 (racemic) [Example 844, (±)-2-[(3S,4S)-3,4-Dihydroxy-4-(4-{7-[2-(methanesulfonyl-methyl-amino)-phenyl]-pyrrolo[2,1-f][1,2,4]triazin-2-ylamino}-3-methoxy-phenyl)-piperidin-1-yl]-acetamide]
25 |  |  |  | < 100 | COc1cc([C@@]2(O)CCNC[C@@H]2O)ccc1Nc1ncc2ccc(-c3ccccc3OC)n2n1 (racemic) [Example 832, (±)-(3S,4S)-4-{3-Methoxy-4-[7-(2-methoxy-phenyl)-pyrrolo[2,1-f][1,2,4]triazin-2-ylamino]-phenyl}-piperidine-3,4-diol]
26 | 100 to 1000 |  |  |  | COc1ccc(-c2ccc3cnc(Nc4ccc(N5CCN(C)CC5)cc4)nn23)cn1 [Example 81, [7-(6-Methoxy-pyridin-3-yl)-pyrrolo[2,1-f][1,2,4]triazin-2-yl]-[4-(4-methyl-piperazin-1-yl)-phenyl]-amine]
